pIC50: −log10 of the molar value.
Assays:
IRAK3 [1] = target: T1, IRAK3 (Homo sapiens, UniProt Q9Y616); assay: IRAK3 biochemical binding assay (LanthaScreen Eu Kinase Binding, TR-FRET); conditions: 10 nM tracer, 10 nM IRAK3, 1 hour at room temperature
T1 sequence (Q9Y616 1-596): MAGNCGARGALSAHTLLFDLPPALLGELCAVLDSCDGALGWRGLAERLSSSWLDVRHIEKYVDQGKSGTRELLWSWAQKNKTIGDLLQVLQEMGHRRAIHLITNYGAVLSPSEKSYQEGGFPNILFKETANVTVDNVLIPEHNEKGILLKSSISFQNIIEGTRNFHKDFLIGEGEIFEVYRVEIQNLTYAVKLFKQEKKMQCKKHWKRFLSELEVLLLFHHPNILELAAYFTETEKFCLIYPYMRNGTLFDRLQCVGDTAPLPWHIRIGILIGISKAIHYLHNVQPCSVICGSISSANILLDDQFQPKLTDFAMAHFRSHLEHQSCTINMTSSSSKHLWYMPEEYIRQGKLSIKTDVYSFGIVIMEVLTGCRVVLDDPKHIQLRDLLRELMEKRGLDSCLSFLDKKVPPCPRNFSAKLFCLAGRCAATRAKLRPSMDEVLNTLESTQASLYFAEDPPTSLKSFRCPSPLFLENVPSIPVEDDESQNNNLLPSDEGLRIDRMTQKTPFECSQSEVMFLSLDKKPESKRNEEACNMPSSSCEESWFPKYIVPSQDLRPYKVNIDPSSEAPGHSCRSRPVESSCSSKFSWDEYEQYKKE
Protocol: Example B3. IRAK3 Biochemical Binding Assay
The LanthaScreen® Eu Kinase Binding assay was performed as described by the vendor (ThermoFisher Scientific Waltham, MA). Briefly, 100× solutions of compound were prepared in DMSO via serial dilution of the 10 mM stock solution in a 384-well reagent plate using 3-fold intervals to achieve final concentrations. 1 μL of the compound dilution series were added to the corresponding wells of a 384-well reagent plate containing 32.3 μL of 1× buffer (50 mM HEPES pH 7.4, […], 1 mM EGTA, 0.01% Brij-35). 5 μL of the buffer diluted compounds were transferred to the corresponding wells of a 384-well assay plate. 5 μL of 3× tracer was transferred to each well of the assay plate for a final tracer concentration of 10 nM. Finally, 5 μL of the 3× Eu-Anti-GST and IRAK3 mix was transferred to each well for a final concentration of 2 nM and 10 nM, respectively. Reactions were allowed to incubate for 1 hour at room temperature. TR-FRET signal of the interaction ([…]/λem 665/λem 615) was read at room temperature with a delay time of 100 μs and an integration time of 200 μs using an Envision plate reader. Background corrected emission signal ratios at each compound concentration were used to calculate percentage of inhibition (% o Inhibition). Plots of % Inhibition versus inhibitor concentrations were fit according to a dose-response equation (Eq. 1) to generate IC50 and Hill slope values using Dotmatics software (Dotmatics, Bishops Storford, Hertfordshire, England).
(§1) Using these assays, IC50, Dmax, EC50, and DC50 values of the following compounds were determined. Dmax is defined as the maximum percent degradation achieved and DC50 is the concentration at which 50% degradation is achieved.

IRAK3 [2] = target: T1, IRAK3; assay: IRAK endogenous HTRF degradation assay (Total-IRAK3 HTRF kit); format: cell-based; set-up: IRAK Endogenous HTRF Degradation Assay; endogenous in cells; conditions: endogenous IRAK3, overnight incubation; % Dmax = 100 − Ymin
Protocol: Example B2. IRAK Endogenous HTRF Degradation Assay
Cells (~50k) were plated in Cisbio 96-well low volume white plates (Cisbio: cat #66PL96005). Compounds were dissolved in DMSO and a 3-fold serial dilution was performed using a TECAN D300E. Cells were incubated with the compound overnight. Total-IRAK3 HTRF kit from Cisbio was used for degradation analysis (Cisbio: 63ADK101PEH). Cryptate and D2 antibodies were diluted in Detection buffer as per manufacturers recommendation. Then 2 μL of each solution was added to 16 μL lysate. Buffer control (lysis buffer detection buffer), Cryptate control (lysis buffer+cryptate antibody+detection buffer), and Negative control (lysis buffer+cryptate antibody+D2 antibody) were made as per manufacturers recommendation. Post incubation with antibodies the HTRF signal was measured using a Perkin Elmer Envision reader and the HTRF signal was calculated using formula: (Emission at 665 nm/Emission at 615 nm)*10,000. All HTRF values were normalized to the average value of DMSO. The average value of the DMSO control wells were set to equal 100% of the relative IRAK3 protein levels. Normalized luminescence values were plotted on a graph as a function of compound concentration. Compound concentration was plotted on the x-axis and the corresponding normalized IRAK3 protein levels on the y-axis. The EC50 value (the half-maximum effective concentration) of a compound for the degradation of the IRAK3 was calculated using a four-parameter logistic model (sigmoidal dose-response model) (FIT=(A+{(B−A)/1+[(C/x)D]})) where C is the inflection point (EC50), D is the […], and A and B are the low and high limits of the fit, respectively). The Ymin was calculated by determining the lowest percentage of target protein remaining following compound treatment. Dmax was calculated from Ymin (% Dmax=100−Ymin).
as §1

Row | Compound | pIC50 (IRAK3 [1]) | Dmax (IRAK3 [2]) [%]
1 | C[C@@H](Oc1cc(-c2cnn(C3CCN(C4CCC5(CC4)CCN(C(=O)c4ccc6c(c4)C(=O)N(C4CCC(=O)NC4=O)C6=O)CC5)CC3)c2)cnc1N)c1c(Cl)ccc(F)c1Cl (stereo partly drawn) [Compound 18, 5-(9-(4-(4-(6-amino-5-((R)-1-(2,6-dichloro-3-fluorophenyl)ethoxy)pyridin-3-yl)-1H-pyrazol-1-yl)piperidin-1-yl)-3-azaspiro[5.5]undecane-3-carbonyl)-2-(2,6-dioxopiperidin-3-yl)isoindoline-1,3-dione] | 7.92 | 73
2 | C[C@@H](Oc1cc(-c2cnn(C3CCN(C4CCC5(CC4)CCN(C(=O)c4ccc6c(c4)CN(C4CCC(=O)NC4=O)C6=O)CC5)CC3)c2)cnc1N)c1c(Cl)ccc(F)c1Cl (stereo partly drawn) [Compound 20, 3-(5-(9-(4-(4-(6-amino-5-((R)-1-(2,6-dichloro-3-fluorophenyl)ethoxy)pyridin-3-yl)-1H-pyrazol-1-yl)piperidin-1-yl)-3-azaspiro[5.5]undecane-3-carbonyl)-1-oxoisoindolin-2-yl)piperidine-2,6-dione] | 8.00 | 73
3 | C[C@@H](Oc1cc(-c2cnn(C3CCN(CCOCCOCCNC(=O)COc4ccc5c(c4)C(=O)N(C4CCC(=O)NC4=O)C5=O)CC3)c2)cnc1N)c1c(Cl)ccc(F)c1Cl (stereo partly drawn) [Compound 15, N-(2-(2-(2-(4-(4-(6-amino-5-((R)-1-(2,6-dichloro-3-fluorophenyl)ethoxy)pyridin-3-yl)-1H-pyrazol-1-yl)piperidin-1-yl)ethoxy)ethoxy)ethyl)-2-((2-(2,6-dioxopiperidin-3-yl)-1,3-dioxoisoindolin-5-yl)oxy)acetamide] | 7.19 | 20
4 | C[C@@H](Oc1cc(-c2cnn(C3CCN(CCNC(=O)COc4cccc5c4C(=O)N(C4CCC(=O)NC4=O)C5=O)CC3)c2)cnc1N)c1c(Cl)ccc(F)c1Cl (stereo partly drawn) [Compound 8, N-(2-(4-(4-(6-amino-5-((R)-1-(2,6-dichloro-3-fluorophenyl)ethoxy)pyridin-3-yl)-1H-pyrazol-1-yl)piperidin-1-yl)ethyl)-2-((2-(2,6-dioxopiperidin-3-yl)-1,3-dioxoisoindolin-4-yl)oxy)acetamide] | 7.60 | 37
5 | C[C@@H](Oc1cc(-c2cnn(C3CCN(CCOCCNC(=O)COc4cccc5c4C(=O)N(C4CCC(=O)NC4=O)C5=O)CC3)c2)cnc1N)c1c(Cl)ccc(F)c1Cl (stereo partly drawn) [Compound 9, N-(2-(2-(4-(4-(6-amino-5-((R)-1-(2,6-dichloro-3-fluorophenyl)ethoxy)pyridin-3-yl)-1H-pyrazol-1-yl)piperidin-1-yl)ethoxy)ethyl)-2-((2-(2,6-dioxopiperidin-3-yl)-1,3-dioxoisoindolin-4-yl)oxy)acetamide] | 7.35 | 23
6 | C[C@@H](Oc1cc(-c2cnn(C3CCN(C4CCC5(CC4)CCN(C(=O)c4cccc(NC6CCC(=O)NC6=O)c4)CC5)CC3)c2)cnc1N)c1c(Cl)ccc(F)c1Cl (stereo partly drawn) [Compound 22, 3-((3-(9-(4-(4-(6-Amino-5-((R)-1-(2,6-dichloro-3-fluorophenyl)ethoxy)pyridin-3-yl)-1H-pyrazol-1-yl)piperidin-1-yl)-3-azaspiro[5.5]undecane-3-carbonyl)phenyl)amino)piperidine-2,6-dione] | 8.30 | 81
7 | C[C@@H](Oc1cc(-c2cnn(C3CCN(CCOCCNC(=O)COc4ccc5c(c4)C(=O)N(C4CCC(=O)NC4=O)C5=O)CC3)c2)cnc1N)c1c(Cl)ccc(F)c1Cl (stereo partly drawn) [Compound 14, N-(2-(2-(4-(4-(6-amino-5-((R)-1-(2,6-dichloro-3-fluorophenyl)ethoxy)pyridin-3-yl)-1H-pyrazol-1-yl)piperidin-1-yl)ethoxy)ethyl)-2-((2-(2,6-dioxopiperidin-3-yl)-1,3-dioxoisoindolin-5-yl)oxy)acetamide] | 7.15 | 3

More lines, now with the values ahead:

Row | pIC50 (IRAK3 [1]) | Dmax (IRAK3 [2]) [%] | Compound
8 | 6.97 | 56 | Cc1ncsc1-c1ccc(CNC(=O)[C@@H]2C[C@@H](O)CN2C(=O)[C@@H](NC(=O)COCCOCCOCCOCCOCCOCCN2CCC(n3cc(-c4cnc(N)c(O[C@H](C)c5c(Cl)ccc(F)c5Cl)c4)cn3)CC2)C(C)(C)C)cc1 [Compound 6, (2S,4R)-1-((S)-23-(4-(4-(6-amino-5-((R)-1-(2,6-dichloro-3-fluorophenyl)ethoxy)pyridin-3-yl)-1H-pyrazol-1-yl)piperidin-1-yl)-2-(tert-butyl)-4-oxo-6,9,12,15,18,21-hexaoxa-3-azatricosanoyl)-4-hydroxy-N-(4-(4-methylthiazol-5-yl)benzyl)pyrrolidine-2-carboxamide]
9 | 6.95 | 41 | Cc1ncsc1-c1ccc(CNC(=O)[C@@H]2C[C@@H](O)CN2C(=O)[C@@H](NC(=O)CCCN2CCC(n3cc(-c4cnc(N)c(O[C@H](C)c5c(Cl)ccc(F)c5Cl)c4)cn3)CC2)C(C)(C)C)cc1 [Compound 1, (2S,4R)-1-((S)-2-(4-(4-(4-(6-amino-5-((R)-1-(2,6-dichloro-3-fluorophenyl)ethoxy)pyridin-3-yl)-1H-pyrazol-1-yl)piperidin-1-yl)butanamido)-3,3-dimethylbutanoyl)-4-hydroxy-N-(4-(4-methylthiazol-5-yl)benzyl)pyrrolidine-2-carboxamide]
10 | 7.33 | 25 | C[C@@H](Oc1cc(-c2cnn(C3CCN(CCOCCOCCOCCNC(=O)COc4ccc5c(c4)C(=O)N(C4CCC(=O)NC4=O)C5=O)CC3)c2)cnc1N)c1c(Cl)ccc(F)c1Cl (stereo partly drawn) [Compound 16, N-(2-(2-(2-(2-(4-(4-(6-amino-5-((R)-1-(2,6-dichloro-3-fluorophenyl)ethoxy)pyridin-3-yl)-1H-pyrazol-1-yl)piperidin-1-yl)ethoxy)ethoxy)ethoxy)ethyl)-2-((2-(2,6-dioxopiperidin-3-yl)-1,3-dioxoisoindolin-5-yl)oxy)acetamide]
11 | 7.25 | 33 | C[C@@H](Oc1cc(-c2cnn(C3CCN(CCOCCOCCOCCOCCNC(=O)COc4cccc5c4C(=O)N(C4CCC(=O)NC4=O)C5=O)CC3)c2)cnc1N)c1c(Cl)ccc(F)c1Cl (stereo partly drawn) [Compound 12, N-(14-(4-(4-(6-amino-5-((R)-1-(2,6-dichloro-3-fluorophenyl)ethoxy)pyridin-3-yl)-1H-pyrazol-1-yl)piperidin-1-yl)-3,6,9,12-tetraoxatetradecyl)-2-((2-(2,6-dioxopiperidin-3-yl)-1,3-dioxoisoindolin-4-yl)oxy)acetamide]
12 | 6.86 | 35 | Cc1ncsc1-c1ccc(CNC(=O)[C@@H]2C[C@@H](O)CN2C(=O)[C@@H](NC(=O)COCCOCCN2CCC(n3cc(-c4cnc(N)c(O[C@H](C)c5c(Cl)ccc(F)c5Cl)c4)cn3)CC2)C(C)(C)C)cc1 [Compound 2, (2S,4R)-1-((S)-2-(2-(2-(2-(4-(4-(6-amino-5-((R)-1-(2,6-dichloro-3-fluorophenyl)ethoxy)pyridin-3-yl)-1H-pyrazol-1-yl)piperidin-1-yl)ethoxy)ethoxy)acetamido)-3,3-dimethylbutanoyl)-4-hydroxy-N-(4-(4-methylthiazol-5-yl)benzyl)pyrrolidine-2-carboxamide]

— patent US20260234124A1, “Substituted Pyrazolyl-Pyridinyl Compounds as Ligand Directed Degraders of IRAK3” (Celgene Corporation, priority 2022, published 2026)
